The record followed here is US20220168313A1, “HETEROCYCLIC COMPOUNDS AND USES THEREOF” (Nuvation Bio Inc., priority 2019, published 2022).

For experiment [1], the target named is T1, WEE1 kinase enzyme (Homo sapiens, UniProt P30291).
T1 construct: purchased Invitrogen, Life Technologies PR7373A
In words: WEE1 IC50 determination, LanthaScreen Terbium Labeled TR-FRET kinase assay. In kind it is biochemical. Conditions: WEE1 Enzyme 1 nM, ATP 10 μM, fluorescent-PolyGT substrate 200 nM, 1 h. As for the experimental part:
IC50 values of the compounds against WEE1 kinase enzyme were determined by LanthaScreen™ Terbium Labeled TR-FRET assay. Kinase assays were performed in 1× kinase buffer (#PV6135, Invitrogen, Life Technologies, Grand Island, N.Y.) where total reaction volume was 10 μL in low-volume 384-well plates (#4511, Corning). Serially diluted compounds (3-fold) were incubated with WEE1 Enzyme (1 nM) (#PR7373A, Invitrogen, Life Technologies, Grand Island, N.Y.) for 10 min; a mixture of ATP (10 μM) (#A1852, Sigma, St. Louis, Mo.) and fluorescent-PolyGT substrate (200 nM) (#PV3610, Invitrogen, Life Technologies, Grand Island, N.Y.) was added and incubated in dark at room temperature for 1 h. After 1 h, 10 μL stop solution containing terbium labeled antibody (4 nM) (#PV3529, Invitrogen, Life Technologies, Grand Island, N.Y.) and EDTA (#E5134, Sigma, St. Louis, Mo.) (20 mM) in TR-FRET dilution buffer (#PV3574, Invitrogen, Life Technologies, Grand Island, N.Y.) were added. Readings were taken in a Synergy Neo plate reader (BioTek, Winooski, Vt.) at single excitation of 340 nm and dual emission at 495 nm and 520 nm respectively.
The % activity of test samples was calculated as (Sample−Min)*100/(Max−Min). [Max: DMSO control, complete reaction with enzyme & DMSO and Min: No enzyme & DMSO]. Percent inhibition (100-% activity) was fitted to the “four-parameter logistic model” in XLfit for determination of IC50 values.

For experiment [2], the system named is A427 cells. In words: Cytotoxicity assay in A427 cell line (resazurin, 72 hr). In kind it is cell-based. The conditions noted are these: Homo sapiens, A-427; A427 lung epithelial cell line, 72 hr incubation, inhibition of proliferation. As for the experimental part: A427 (HTB-53; ATCC), a lung epithelial cell line, was seeded in medium (MEM, 41090101; Gibco) at a cell count of 1500 cells per 100 μL per well in a 96 well edge plate (167425; ThermoFisher). Cells were allowed to grow at 37° C. for 24 hr in 5% CO2 environment (culture conditions) in a Nuaire incubator (humidified). Serially diluted test compounds (100 μL) within the desired testing concentration ranges were added to the culture plate and the cells further incubated in culture conditions for 72 hr. The experiment was terminated at the designated incubation time by replacing the medium with 100 μL of 1 mM of resazurin (R7017; Sigma) prepared in culture medium, and the plates were further incubated in culture conditions for 4-6 hr. Fluorescence was recorded using a multimodal plate reader (Biotek Synergy Neo) at an excitation wavelength of 535 nm and emission wavelength of 590 nm to obtain relative fluorescence units. Data were analysed as follows: the background fluorescence (blank containing only medium) value was subtracted from each reading and normalized with the vehicle control (DMSO treated cells) to obtain percent survival/proliferation. […] Potency of compounds in other cell lines (such as A549, As-Pc-1, Panc-10.05, MDA-MB-231, A172, U-87MG) may be determined in an analogous manner.

One may read the IC50 as the concentration that inhibits the measured activity by half.

T1 sequence (P30291 whole entry): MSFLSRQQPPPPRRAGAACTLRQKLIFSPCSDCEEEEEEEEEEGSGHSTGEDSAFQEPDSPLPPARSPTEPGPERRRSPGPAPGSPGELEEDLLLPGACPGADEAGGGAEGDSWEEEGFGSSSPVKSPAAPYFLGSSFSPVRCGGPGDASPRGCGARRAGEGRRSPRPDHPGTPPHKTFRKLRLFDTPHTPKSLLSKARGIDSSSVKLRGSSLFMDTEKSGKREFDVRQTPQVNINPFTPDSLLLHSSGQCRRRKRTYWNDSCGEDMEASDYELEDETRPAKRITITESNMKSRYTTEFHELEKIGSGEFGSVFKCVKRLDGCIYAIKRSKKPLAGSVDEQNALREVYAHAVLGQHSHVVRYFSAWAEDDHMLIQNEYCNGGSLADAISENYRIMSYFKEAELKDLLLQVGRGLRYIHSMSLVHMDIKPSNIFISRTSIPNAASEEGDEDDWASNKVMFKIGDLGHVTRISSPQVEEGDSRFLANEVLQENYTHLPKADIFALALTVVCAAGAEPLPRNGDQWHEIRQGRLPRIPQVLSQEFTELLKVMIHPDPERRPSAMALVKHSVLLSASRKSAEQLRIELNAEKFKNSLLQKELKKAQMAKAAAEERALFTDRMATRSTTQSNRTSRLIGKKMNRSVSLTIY

Turning to `CN(C)CC(=O)N1CCc2cc(Nc3ncc4c(n3)OCN(c3c(Cl)cccc3Cl)C4=O)ccc2C1` [1.37, 3-(2,6-dichlorophenyl)-7-(2-(2-(dimethylamino)acetyl)-1,2,3,4-tetrahydroisoquinolin-6-ylamino)-2H-pyrimido[5,4-e][1,3]oxazin-4 (3H)-one], the IC50 in experiment [1] came out at 145 nM.

Regarding `CN(C)CC(=O)N1CCc2cc(Nc3ncc4c(n3)OCN(c3c(Cl)cccc3Cl)C4=O)ccc2C1(C)C` [1.48, 3-(2,6-dichlorophenyl)-7-((2-(dimethylglycyl)-1,1-dimethyl-1,2,3,4-tetrahydroisoquinolin-6-yl)amino)-2,3-dihydro-4H-pyrimido[5,4-e][1,3]oxazin-4-one], the IC50 in experiment [1] amounted to 125 nM.

As to `CC(C)N1CCc2cc(Nc3ncc4c(n3)OCN(c3c(Cl)cccc3Cl)C4=O)ccc2C1` [Compound No. 1.40, 3-(2,6-dichlorophenyl)-7-((2-isopropyl-1,2,3,4-tetrahydroisoquinolin-6-yl)amino)-2,3-dihydro-4H-pyrimido[5,4-e][1,3]oxazin-4-one], the IC50 in experiment [1] was 206 nM.

For the molecule `CC(C)N1CCc2ccc(Nc3ncc4c(n3)OCN(c3c(Cl)cccc3Cl)C4=O)cc2C1` [Compound No. 1.43, 3-(2,6-dichlorophenyl)-7-((2-isopropyl-1,2,3,4-tetrahydroisoquinolin-7-yl)amino)-2,3-dihydro-4H-pyrimido[5,4-e][1,3]oxazin-4-one], the IC50 stood at 5500 nM in experiment [2] and 21 nM in experiment [1].

Turning to `CN(C)CC(=O)N1CCc2ccc(Nc3ncc4c(n3)OCN(c3c(Cl)cccc3Cl)C4=O)cc2C1` [Compound No. 1.44, 3-(2,6-dichlorophenyl)-7-((2-(dimethylglycyl)-1,2,3,4-tetrahydroisoquinolin-7-yl)amino)-2,3-dihydro-4H-pyrimido[5,4-e][1,3]oxazin-4-one], the 50% inhibitory concentration (IC50) in experiment [1] is 225 nM.
